This note sets out measurements from PubChem BioAssay AID2060335 (Molecular Pharmacology Branch, DTP, NCI, 2025).

Where “and” joins values, the source holds several entries; their conditions need not be identical. Identical values can stand only once. Some results are limits rather than exact numbers.

For the assay, the system named is DU-145 multicell spheroids with HUVEC/MSC, viability. In words: Anticancer human tumor DU-145 cell line growth inhibition [IpAb].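 For all read-outs here: spheroids exposed to agents for seven days before measurement.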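 For viability, T/C: percent of DMSO vehicle control viability so 100% = untreated level.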 To be noted: for viability, T/C: stronger effect = lower value. The method, boiled down:
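Multi-cell spheroids of 60% tumour cells, 25% HUVEC and 15% MSC in ultra-low-attachment U-bottom wells, treated with agents combined with ipatasertib or abemaciclib. Half-log ranges top out near clinical Cmax, or 10 microM when Cmax is unknown.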

Setting [1] is: curve of first compound, second compound 0.01 µM.
[2] abbreviates: curve of first compound, second compound 0.0316 µM.
[3] abbreviates: curve of first compound, second compound 0.1 µM.
The mark [4] stands for this setting: curve of first compound, second compound 0.316 µM.
Setting [5] is: curve of first compound, second compound 1 µM.
The mark [6] stands for this setting: second compound 0.01 µM, first compound 0.0316 µM.
[7] abbreviates: second compound 0.01 µM, first compound 0.1 µM.
Setting [8] is: second compound 0.01 µM, first compound 0.316 µM.
Where [9] appears, read: second compound 0.01 µM, first compound 1 µM.
The mark [10] stands for this setting: second compound 0.01 µM, first compound 3.16 µM.
Where [11] appears, read: second compound 0.01 µM, first compound 10 µM.
The mark [12] stands for this setting: second compound 0.0316 µM, first compound 0.0316 µM.
The mark [13] stands for this setting: second compound 0.0316 µM, first compound 0.1 µM.
Setting [14] is: second compound 0.0316 µM, first compound 0.316 µM.
[15] abbreviates: second compound 0.0316 µM, first compound 1 µM.
The mark [16] stands for this setting: second compound 0.0316 µM, first compound 3.16 µM.
Setting [17] is: second compound 0.0316 µM, first compound 10 µM.
The mark [18] stands for this setting: second compound 0.1 µM, first compound 0.0316 µM.
Setting [19] is: second compound 0.1 µM, first compound 0.1 µM.
The mark [20] stands for this setting: second compound 0.1 µM, first compound 0.316 µM.
Setting [21] is: second compound 0.1 µM, first compound 1 µM.
[22] abbreviates: second compound 0.1 µM, first compound 3.16 µM.
Setting [23] is: second compound 0.1 µM, first compound 10 µM.
The mark [24] stands for this setting: second compound 0.316 µM, first compound 0.0316 µM.
The mark [25] stands for this setting: second compound 0.316 µM, first compound 0.1 µM.
Setting [26] is: second compound 0.316 µM, first compound 0.316 µM.
Where [27] appears, read: second compound 0.316 µM, first compound 1 µM.
[28] abbreviates: second compound 0.316 µM, first compound 3.16 µM.
[29] abbreviates: second compound 0.316 µM, first compound 10 µM.
Setting [30] is: second compound 1 µM, first compound 0.0316 µM.
The mark [31] stands for this setting: second compound 1 µM, first compound 0.1 µM.
Where [32] appears, read: second compound 1 µM, first compound 0.316 µM.
Where [33] appears, read: second compound 1 µM, first compound 1 µM.
Setting [34] is: second compound 1 µM, first compound 3.16 µM.
Setting [35] is: second compound 1 µM, first compound 10 µM.

One may read the IC50 as the concentration that gives 50% inhibition. A word on the viability, T/C: it is the result in the treated group divided by that in the control group, in per cent. For the molecule `Cc1nc(NC(=O)N2CCCC2C(N)=O)sc1-c1ccnc(C(C)(C)C(F)(F)F)c1` (stereo not drawn) + CCN1CCN(Cc2ccc(Nc3ncc(F)c(-c4cc(F)c5nc(C)n(C(C)C)c5c4)n3)nc2)CC1, the IC50 runs as follows: under setting [1], 0.186 µM; under setting [2], 0.116 µM; under setting [3], 0.0973 µM; under setting [4], 0.0941 µM; under setting [5], 0.168 µM. The viability, T/C by setting is: under setting [6], 75.3%; under setting [7], 59.4%; under setting [8], 39.9%; under setting [9], 31.5%; under setting [10], 19.4%; under setting [11], 9.2%. Moreover, the viability, T/C was 73.5% under setting [12]; 45.8% under setting [13]; 38% under setting [14]; 29.5% under setting [15]; 19.2% under setting [16]; 8.68% under setting [17]. Further, the viability, T/C is 67.1% under setting [18]; 49.2% under setting [19]; 33.8% under setting [20]; 28.6% under setting [21]; 20.5% under setting [22]; 11% under setting [23]. Also, the viability, T/C reads like this: under setting [24], 61%; under setting [25], 49.7%; under setting [26], 36.8%; under setting [27], 32.4%; under setting [28], 24.1%; under setting [29], 16%. Also, the viability, T/C was 58.1% under setting [30]; 55% under setting [31]; 43.8% under setting [32]; 39% under setting [33]; 28.4% under setting [34]; 21.5% under setting [35].

Regarding `COc1c(OCCCN2CCOCC2)ccc2c3n(c(=NC(=O)c4cnc(N)nc4)nc12)CCN3`, the viability, T/C by setting is: (compound 0.00316 µM) 78.7% and 83.3%; (compound 0.01 µM) 49.7% and 48.7%; (compound 0.0316 µM) 27.3% and 28.9%; (compound 0.1 µM) 15.9% and 14.9%; (compound 0.316 µM) 10.9% and 10.1%; (compound 1 µM) 11% and 11.2%. Further, where the note is “curve of compound”, the IC50 was 0.00992 µM and 0.00981 µM.

With `Cc1nc(NC(=O)N2CCCC2C(N)=O)sc1-c1ccnc(C(C)(C)C(F)(F)F)c1` (stereo not drawn), the viability, T/C runs as follows: (compound 0.0316 µM) 81% and 75.7%; (compound 0.1 µM) 60.6% and 54.3%; (compound 0.316 µM) 39.9% and 37.3%; (compound 1 µM) 29% and 31.4%; (compound 3.16 µM) 21.7% and 20.9%; (compound 10 µM) 8.51% and 8.2%. Moreover, the IC50 (curve of compound) was 0.192 µM and 0.16 µM.

Turning to `Cn1nccc1Nc1nccc(-c2ccn(C(CO)c3ccc(Cl)c(F)c3)c(=O)c2)n1` (stereo not drawn) + CCN1CCN(Cc2ccc(Nc3ncc(F)c(-c4cc(F)c5nc(C)n(C(C)C)c5c4)n3)nc2)CC1, the IC50 reads like this: under setting [1], more than 10 µM; under setting [2], 7.22 µM; under setting [3], more than 10 µM; under setting [4], more than 10 µM; under setting [5], more than 10 µM. Besides, the viability, T/C reads like this: under setting [6], 86.9%; under setting [7], 68.4%; under setting [8], 71%; under setting [9], 85.6%; under setting [10], 103%; under setting [11], 82.1%. The viability, T/C reads like this: under setting [12], 85.4%; under setting [13], 64.7%; under setting [14], 69.8%; under setting [15], 82.5%; under setting [16], 105%; under setting [17], 37.7%. Moreover, the viability, T/C runs as follows: under setting [18], 65.2%; under setting [19], 60.4%; under setting [20], 63.5%; under setting [21], 75.1%; under setting [22], 92.6%; under setting [23], 53.6%. In addition, the viability, T/C under setting [24] was 67.1%; the viability, T/C under setting [25] was 60.7%; the viability, T/C under setting [26] was 61.9%; the viability, T/C under setting [27] is 77%; the viability, T/C under setting [28] is 79.1%; the viability, T/C under setting [29] was 54.8%. The viability, T/C is 66.4% under setting [30]; 68.2% under setting [31]; 61.5% under setting [32]; 73.5% under setting [33]; 90.2% under setting [34]; 64.3% under setting [35].

Take `Cn1ncc(Cl)c1-c1cc(C(=O)NC(CN)Cc2cccc(F)c2)sc1Cl` (stereo not drawn): the viability, T/C was 92.5% and 86.1% (compound 0.0316 µM); 74.3% and 61.8% (compound 0.1 µM); 41.4% and 33.2% (compound 0.316 µM); 27.6% and 23.1% (compound 1 µM); 20.3% and 15.2% (compound 3.16 µM); 1.17% and 1.6% (compound 10 µM). For the same molecule, the IC50 (curve of compound) is 0.271 µM and 0.163 µM.

In the case of `C=CC(=O)N1CCN(c2nc(=O)n(-c3c(C)ccnc3C(C)C)c3nc(-c4c(O)cccc4F)c(F)cc23)C(C)C1` (stereo not drawn) + CCN1CCN(Cc2ccc(Nc3ncc(F)c(-c4cc(F)c5nc(C)n(C(C)C)c5c4)n3)nc2)CC1, the IC50 is 7.92 µM under setting [1]; 7.52 µM under setting [2]; 8.37 µM under setting [3]; 9.55 µM under setting [4]; 6.07 µM under setting [5]. Further, the viability, T/C under setting [6] is 94.6%; the viability, T/C under setting [7] was 104%; the viability, T/C under setting [8] is 111%; the viability, T/C under setting [9] is 104%; the viability, T/C under setting [10] was 86.1%; the viability, T/C under setting [11] was 40.6%. Further, the viability, T/C under setting [12] is 91.2%; the viability, T/C under setting [13] was 95%; the viability, T/C under setting [14] was 98.7%; the viability, T/C under setting [15] was 96.5%; the viability, T/C under setting [16] is 81.5%; the viability, T/C under setting [17] was 39.4%. For the same molecule, the viability, T/C is 82.8% under setting [18]; 81% under setting [19]; 91.5% under setting [20]; 93.3% under setting [21]; 78.4% under setting [22]; 44.8% under setting [23]. Also, the viability, T/C under setting [24] was 78.8%; the viability, T/C under setting [25] is 78.3%; the viability, T/C under setting [26] is 82.4%; the viability, T/C under setting [27] was 85.8%; the viability, T/C under setting [28] is 77.3%; the viability, T/C under setting [29] was 49%. Moreover, the viability, T/C was 66.1% under setting [30]; 64.4% under setting [31]; 65.9% under setting [32]; 70.5% under setting [33]; 67.5% under setting [34]; 37.3% under setting [35].

`Cn1ncc(Cl)c1-c1cc(C(=O)NC(CN)Cc2cccc(F)c2)sc1Cl` (stereo not drawn) + CCN1CCN(Cc2ccc(Nc3ncc(F)c(-c4cc(F)c5nc(C)n(C(C)C)c5c4)n3)nc2)CC1: the IC50 is, setting by setting: under setting [1], 0.135 µM; under setting [2], 0.0967 µM; under setting [3], 0.0803 µM; under setting [4], 0.0796 µM; under setting [5], 0.19 µM. The viability, T/C is 84.7% under setting [6]; 56.3% under setting [7]; 30.6% under setting [8]; 22.5% under setting [9]; 13.7% under setting [10]; 1.16% under setting [11]. The viability, T/C is 74.1% under setting [12]; 48.9% under setting [13]; 29.6% under setting [14]; 19.6% under setting [15]; 14% under setting [16]; 0.22% under setting [17]. The viability, T/C is 64.4% under setting [18]; 47.8% under setting [19]; 29.4% under setting [20]; 19% under setting [21]; 13.4% under setting [22]; 0.82% under setting [23]. Moreover, the viability, T/C reads like this: under setting [24], 60%; under setting [25], 48.5%; under setting [26], 32.8%; under setting [27], 23.4%; under setting [28], 16.4%; under setting [29], 0.85%. Moreover, the viability, T/C is 60.3% under setting [30]; 52% under setting [31]; 50.2% under setting [32]; 30.9% under setting [33]; 25.8% under setting [34]; 0.53% under setting [35].

`Cn1cnc2c(F)c(Nc3ccc(Br)cc3Cl)c(C(=O)NOCCO)cc21`: the viability, T/C (compound 0.00949 µM) was 84.1% and 81.8%; the viability, T/C (compound 0.03 µM) is 67.6% and 74.4%; the viability, T/C (compound 0.0949 µM) was 60.8% and 66.5%; the viability, T/C (compound 0.3 µM) is 55.5% and 53.2%; the viability, T/C (compound 0.949 µM) is 48% and 51.1%; the viability, T/C (compound 3 µM) is 42.9% and 37.9%. Moreover, the IC50 (curve of compound) is 0.597 µM and 0.704 µM.
